In publication PMC6199744, “Development of Chemical Proteomics for the Folateome and Analysis of the Kinetoplastid Folateome” (ACS Infectious Diseases, 2018):
Where two headings read alike, the source gives them in different places.

System: T. brucei lysate proteins
Type: binding, Trypanosoma brucei
Conditions: vehicle control = 1

`NCCCNc1ccc(C(=O)NC(CCC(=O)O)C(=O)O)cc1` (centres unmarked) [compound 7] was tested. Which “fold change vs vehicle control” value (protein TB427.04.760 GAMMA-ADAPTIN 1, PUTATIVE) did it give?
Its value is 0.84.

And the fold change (protein TB427.05.1210 SHORT-CHAIN DEHYDROGENASE, PUTATIVE)?
The fold change was 0.95.

What about the “fold change vs vehicle control” value (protein TB427.05.1320 HY[…], CONSERVED) of the same compound?
Its value is 0.92.

And the fold change (protein TB427.05.3030 INTR[…] PROTEIN IFT122, PUTATIVE)?
The fold change was 0.96.

And the “fold change vs vehicle control” value (protein TB427.05.4560 GUANINE DEAMINASE, PUTATIVE)?
Its value is 0.91.

What about the “fold change vs vehicle control” value (protein TB427.06.1070 HY[…], CONSERVED) of the same compound?
Its value is 1.17.

And the fold change (protein TB427.06.2550 RNA-BINDING PROTEIN, PUTATIVE)?
The fold change was 1.51.

What about the fold change (protein TB427.06.3500 ENDOSOMAL T[…] RME-8, PUTATIVE) of the same compound?
The fold change was 0.89.

What about the fold change (protein TB427.06.3630 SPHINGOSINE 1-PHOSPHATE LYASE, PUTATIVE) of the same compound?
The fold change was 0.95.

And the fold change (protein TB427.06.3650 ADP-RI[…], PUTATIVE)?
Its fold change is 0.97.

And the fold change (protein TB427.06.3670 PAR[…] COMPONENT, PUTATIVE)?
The fold change was 1.

And the fold change (protein TB427.06.700 ALANYL-TRNA SYNTHETASE, PUTATIVE)?
The fold change was 0.84.

What about the “fold change vs vehicle control” value (protein TB427.07.1300 PROTEIN DISULFIDE ISOMERASE, PUTATIVE) of the same compound?
The value was 1.3.

What about the “fold change vs vehicle control” value (protein TB427.07.3160 DYNEIN HEAVY CHAIN, CYTOSOLIC, PUTATIVE) of the same compound?
Its value is 0.87.

What about the fold change (protein TB427.07.3980 IMMU[…], PUTATIVE) of the same compound?
The fold change was 0.91.

What about the “fold change vs vehicle control” value (protein TB427.07.4170 FATTY ACID ELONGASE, PUTATIVE) of the same compound?
Its value is 0.97.

And the fold change (protein TB427.07.4180 FATTY ACID ELONGASE, PUTATIVE)?
The fold change was 1.1.

What about the fold change (protein TB427.07.4970 GLUTAMINE SYNTHETASE, PUTATIVE) of the same compound?
The fold change was 0.98.

What about the “fold change vs vehicle control” value (protein TB427.07.7500 THYMINE-7-HYDROXYLASE, PUTATIVE) of the same compound?
Its value is 0.95.

And the “fold change vs vehicle control” value (protein TB427.08.1210 HY[…], CONSERVED)?
The value was 1.49.

And the fold change (protein TB427.08.2060 HY[…], CONSERVED)?
The fold change was 0.91.

And the fold change (protein TB427.08.2080 HY[…], CONSERVED)?
Its fold change is 0.91.

What about the fold change (protein TB427.08.3150 T-COMPLEX PROTEIN 1, GAMMA SUBUNIT, PUTATIVE) of the same compound?
The fold change was 0.97.

And the fold change (protein TB427.08.4210 HY[…], CONSERVED)?
Its fold change is 0.91.

And the fold change (protein TB427.08.5760 HY[…], CONSERVED)?
Its fold change is 0.99.

And the fold change (protein TB427.10.10350 PROTEIN KINASE, PUTATIVE)?
Its fold change is 0.62.

And the fold change (protein TB427.10.10360 MICROTUBULE-[…], PUTATIVE)?
Its fold change is 0.85.

What about the fold change (protein TB427.10.1060 T-COMPLEX PROTEIN 1, DELTA SUBUNIT, PUTATIVE) of the same compound?
The fold change was 0.96.

And the “fold change vs vehicle control” value (protein TB427.10.10610 PROTEIN TYROSINE PHOSPHATASE, PUTATIVE)?
The value was 1.47.

And the fold change (protein TB427.10.1070 CELL DIVISION PROTEIN KINASE 2 HOMOLOG 1 (CRK1))?
The fold change was 0.93.

What about the “fold change vs vehicle control” value (protein TB427.10.11760 PUMILIO/PUF RNA BINDING PROTEIN 6) of the same compound?
Its value is 0.99.

What about the fold change (protein TB427.10.12710 HEAT SHOCK PROTEIN, PUTATIVE) of the same compound?
Its fold change is 0.77.

What about the “fold change vs vehicle control” value (protein TB427.10.12820 HY[…], CONSERVED) of the same compound?
Its value is 0.93.

And the “fold change vs vehicle control” value (protein TB427.10.12890 BI[…]-TRNA SYNTHETASE, PUTATIVE)?
Its value is 0.98.

And the fold change (protein TB427.10.14140 PYRUVATE KINASE 1)?
Its fold change is 0.86.

And the “fold change vs vehicle control” value (protein TB427.10.14180 PROTEIN TRANSPORT PROTEIN SEC13, PUTATIVE)?
Its value is 0.89.

What about the “fold change vs vehicle control” value (protein TB427.10.14470 INTR[…] PROTEIN IFT140, PUTATIVE) of the same compound?
Its value is 1.33.

And the fold change (protein TB427.10.1450 HY[…], CONSERVED)?
The fold change was 0.88.

And the fold change (protein TB427.10.14860 HY[…], CONSERVED)?
Its fold change is 0.95.

And the “fold change vs vehicle control” value (protein TB427.10.14950 RNA BINDING PROTEIN, PUTATIVE)?
The value was 1.37.

And the fold change (protein TB427.10.2350 PYRUVATE DEH[…] E3 BINDING PROTEIN, PUTATIVE)?
Its fold change is 0.93.

What about the fold change (protein TB427.10.2440 METACASPASE MCA4) of the same compound?
The fold change was 0.83.

What about the “fold change vs vehicle control” value (protein TB427.10.3470 HY[…], CONSERVED) of the same compound?
Its value is 1.2.

What about the fold change (protein TB427.10.4610 […]-MANNOSE SYNTHASE, PUTATIVE) of the same compound?
Its fold change is 0.98.

And the “fold change vs vehicle control” value (protein TB427.10.5810 HY[…], CONSERVED)?
The value was 0.88.

What about the fold change (protein TB427.10.5840 T[…] 1-BETA, PUTATIVE) of the same compound?
Its fold change is 0.92.

And the fold change (protein TB427.10.5850 HY[…], CONSERVED)?
The fold change was 0.88.

What about the fold change (protein TB427.10.6150 […]/BEIGE PROTEIN, PUTATIVE) of the same compound?
The fold change was 0.99.

What about the fold change (protein TB427.10.6310 MAJOR VAULT PROTEIN, PUTATIVE) of the same compound?
Its fold change is 0.93.

And the fold change (protein TB427.10.730 ATP SYNTHASE, PUTATIVE)?
The fold change was 0.84.

What about the “fold change vs vehicle control” value (protein TB427.10.7410 SUCCINYL-COA LIGASE GDP-FORMING] BETA-CHAIN, PUTATIVE) of the same compound?
Its value is 0.94.

And the fold change (protein TB427.10.8190 T-COMPLEX PROTEIN 1, THETA SUBUNIT, PUTATIVE)?
Its fold change is 0.94.

What about the “fold change vs vehicle control” value (protein TB427.10.8230 PROTEIN DISULFIDE ISOMERASE) of the same compound?
Its value is 1.25.

And the fold change (protein TB427.10.8720 HY[…], CONSERVED)?
Its fold change is 1.

What about the “fold change vs vehicle control” value (protein TB427.10.8850 HY[…], CONSERVED) of the same compound?
Its value is 0.93.

What about the fold change (protein TB427.10.9890 HY[…], CONSERVED) of the same compound?
Its fold change is 0.65.

What about the fold change (protein TB927.10.12960 RAS-RELATED PROTEIN RAB-5) of the same compound?
Its fold change is 0.98.

What about the fold change (protein TB927.10.1550 […]-ATP-ASE SUBUNIT 5) of the same compound?
Its fold change is 0.9.

What about the fold change (protein TB927.1.2330 BETA TUBULIN) of the same compound?
Its fold change is 0.99.

And the “fold change vs vehicle control” value (protein TB927.10.2890 ENOLASE)?
Its value is 0.91.

And the fold change (protein TB927.10.3660 ASPARTATE AMINOTRANSFERASE)?
The fold change was 0.96.

What about the fold change (protein TB927.10.4180 TFIIF-[…] PHOSPHATASE, PUTATIVE) of the same compound?
Its fold change is 0.87.

And the fold change (protein TB927.10.5500 HY[…], CONSERVED)?
The fold change was 0.99.

And the fold change (protein TB927.10.6050 CLATHRIN HEAVY CHAIN)?
The fold change was 0.87.

What about the “fold change vs vehicle control” value (protein TB927.10.8030 HY[…], CONSERVED) of the same compound?
The value was 1.

What about the “fold change vs vehicle control” value (protein TB927.10.8940 HY[…], CONSERVED) of the same compound?
Its value is 0.97.

And the fold change (protein TB927.2.100 RETRO[…] SPOT (RHS) PROTEIN, PUTATIVE,RETRO[…] SPOT PROTEIN 1 (RHS1), PUTATIVE)?
Its fold change is 0.9.

What about the “fold change vs vehicle control” value (protein TB927.2.2440 […]-ATPASE SUBUNIT 6) of the same compound?
The value was 1.85.

What about the fold change (protein TB927.2.3800 MRNA […], PUTATIVE) of the same compound?
Its fold change is 0.77.

What about the fold change (protein TB927.3.1240 PROTEIN PHOSPHATASE 2A, PUTATIVE) of the same compound?
Its fold change is 0.77.

And the “fold change vs vehicle control” value (protein TB927.3.2960 INOSINE-ADENOSINE-GUANOSINE-[…])?
Its value is 0.82.

And the fold change (protein TB927.3.3190 SERINE/THREONINE-PROTEIN KINASE, PUTATIVE)?
Its fold change is 0.89.

What about the “fold change vs vehicle control” value (protein TB927.3.3450 ADP-RI[…]-LIKE PROTEIN 3A, PUTATIVE) of the same compound?
The value was 0.76.

And the fold change (protein TB927.3.3780 TRYPAREDOXIN)?
The fold change was 0.9.

What about the “fold change vs vehicle control” value (protein TB927.3.5120 HY[…], CONSERVED (Ankyrin repeats (3 copies), putative)) of the same compound?
The value was 1.2.

What about the “fold change vs vehicle control” value (protein TB927.3.740 HY[…], CONSERVED) of the same compound?
The value was 0.97.

And the fold change (protein TB927.4.3590 T[…] 1-BETA, PUTATIVE)?
The fold change was 0.77.

What about the fold change (protein TB927.5.3220 SIGNAL PEPTIDASE TYPE I, PUTATIVE) of the same compound?
Its fold change is 0.9.

And the “fold change vs vehicle control” value (protein TB927.5.4440 DYNEIN LIGHT CHAIN, PUTATIVE)?
Its value is 1.1.

And the fold change (protein TB927.6.2200 HY[…], CONSERVED)?
The fold change was 0.97.

What about the fold change (protein TB927.6.4460 S-ADENOSYLMETHIONINE DECARBOXYLASE) of the same compound?
The fold change was 0.97.

And the “fold change vs vehicle control” value (protein TB927.6.560 CYSTEINE PEPTIDASE C (CPC))?
Its value is 1.

And the “fold change vs vehicle control” value (protein TB927.7.4470 HY[…], CONSERVED)?
The value was 1.22.

And the fold change (protein TB927.7.6320 HY[…], CONSERVED)?
The fold change was 0.96.

What about the “fold change vs vehicle control” value (protein TB927.7.7430 ATP SYNTHASE ALPHA CHAIN, MIT[…]) of the same compound?
Its value is 0.93.

And the fold change (protein TB927.8.1990 PEROXIDOXIN)?
Its fold change is 0.67.

And the “fold change vs vehicle control” value (protein TB927.8.4810 PROHIBITIN 1)?
Its value is 0.99.

What about the fold change (protein TB927.8.890 SMALL GTP-BINDING PROTEIN RAB1, PUTATIVE) of the same compound?
Its fold change is 0.93.

And the fold change (protein TB-292 MEMBRANE ASSOCIATED PROTEIN)?
The fold change was 0.93.
